Data taken from US8211945B2, “Carba-sugar amine derivative and glycolipid metabolic disorder treating agent containing the same as active ingredient” (Seikagaku Corporation, priority 2001, dated 2012).
Changes are numbered by the printed parent chain.

Tests used:
Assay in all cases: Mutant β-galactosidase activity in model cells, 4 days culture
Type in all cases: cell-based
[1] = target: T1, human mutant β-galactosidase G123R (Homo sapiens, UniProt P16278, G123R)
T1 construct: expressed in transfected cells; host or cells: SV40-immortalized skin fibroblasts of a β-galactosidase-deficient knockout mouse
T1 sequence (P16278 29-677 G123R): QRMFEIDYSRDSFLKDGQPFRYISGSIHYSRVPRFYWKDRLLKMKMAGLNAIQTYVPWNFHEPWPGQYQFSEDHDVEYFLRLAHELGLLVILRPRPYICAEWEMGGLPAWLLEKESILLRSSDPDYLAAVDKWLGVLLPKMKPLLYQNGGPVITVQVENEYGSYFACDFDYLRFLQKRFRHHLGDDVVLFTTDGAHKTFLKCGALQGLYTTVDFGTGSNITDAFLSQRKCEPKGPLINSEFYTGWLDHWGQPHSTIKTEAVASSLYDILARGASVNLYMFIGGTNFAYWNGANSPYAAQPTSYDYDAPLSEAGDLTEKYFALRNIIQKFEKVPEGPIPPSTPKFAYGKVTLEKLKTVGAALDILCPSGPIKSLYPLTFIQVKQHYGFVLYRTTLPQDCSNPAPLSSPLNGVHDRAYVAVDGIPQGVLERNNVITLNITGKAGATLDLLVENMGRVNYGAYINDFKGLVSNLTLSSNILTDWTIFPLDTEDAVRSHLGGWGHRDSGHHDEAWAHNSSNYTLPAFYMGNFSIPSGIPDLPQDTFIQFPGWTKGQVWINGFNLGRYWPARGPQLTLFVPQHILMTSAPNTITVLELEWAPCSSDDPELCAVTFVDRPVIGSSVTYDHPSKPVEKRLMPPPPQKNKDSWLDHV
Source text: (§1) Cultured skin fibroblasts of a β-galactosidase-deficient knockout mouse was immortalized by introducing an SV40 viral gene, and enzyme genes integrated into pSV2neo and an expression vector were also introduced simultaneously, thereby establishing a model cell (Brain Dev., 23(5), 284-287, 2001). The genes used are human normal (GP8) and mutant β-galactosidase gene Y316C, G123R (infantile GM1-gangliosidosis), R201C (juvenile GM1-gangliosidosis), 151T, T82M, R201H, R263S, R457Q (adult GM1-gangliosidosis), W273L, Y83H, R482H and R482C (Morquio-B disease) (Hum. Genet., 93(2), 109-114, 1994).
(§2) As a control substance, 0.5 mM N-(n-butyl)-deoxygalactonojirimycin (NB-DGJ: The Journal of Biological Chemistry, 269, 27108-27114 (1994)) was used, and the substance 18 of the present invention was used in an amount of 0.2 μM.
(§3) Specifically, after culturing the model cell for 4 days using a cell culture medium (10% FCS DMEM) containing the substance 18 of the present invention, the resulting cells were recovered and diluted such that the amount of protein in the suspension became a predetermined level, and then enzyme activity in the diluted suspension was measured. Using 4-methylumbelliferyl-β-D-galactopyranoside as the fluorescent substrate, the enzyme activity during 30 minutes was measured at 37° C.

[2] = target: T2, human mutant β-galactosidase R457Q (Homo sapiens, UniProt P16278, R457Q)
T2 construct: expressed in transfected cells; host or cells: SV40-immortalized skin fibroblasts of a β-galactosidase-deficient knockout mouse
T2 sequence (P16278 29-677 R457Q): T1 sequence (P16278 29-677 G123R) with R95G, R429Q
Source text: as §1, §2, §3

[3] = target: T3, human mutant β-galactosidase R482H (Homo sapiens, UniProt P16278, R482H)
T3 construct: expressed in transfected cells; host or cells: SV40-immortalized skin fibroblasts of a β-galactosidase-deficient knockout mouse
T3 sequence (P16278 29-677 R482H): T1 sequence (P16278 29-677 G123R) with R95G, R454H
Source text: as §1, §2, §3

enzyme activity, Control ([1]; transferred gene G123R, control substance 0.5 mM NB-DGJ)	enzyme activity, Control ([2]; transferred gene R457Q, control substance 0.5 mM NB-DGJ)	enzyme activity, Control ([3]; transferred gene R482H, control substance 0.5 mM NB-DGJ)	Compound	Relative ratio (×100%) ([1]; G123R, substance 18 vs control)	enzyme activity ([1]; transferred gene G123R, 0.2 μM, 4 days)	enzyme activity increased in comparison with the control ([2]; R457Q, 0.2 μM)	Relative ratio (×100%) ([2]; R457Q, substance 18 vs control)	enzyme activity ([2]; transferred gene R457Q, 0.2 μM, 4 days)	Relative ratio (×100%) ([3]; R482H, substance 18 vs control)	enzyme activity ([3]; transferred gene R482H, 0.2 μM, 4 days)
			CCCCCCCCN[C@@H]1C=C(CO)[C@H](O)C(O)[C@@H]1O (stereo partly drawn) [Substance 18, N-octyl-5a-carba-α-L-arabino-hexo-5(5a)-enopyranosylamine]	1.55 ×100%	0.20	≥ 150%	2.42 ×100%	14.17	2.50 ×100%	1.24
0.13	5.84	0.50	CCCCN1C[C@H](O)[C@@H](O)[C@@H](O)[C@H]1CO [Control, N-(n-butyl)-deoxygalactonojirimycin, reference compound]							
